Values of other authors as cited in patent publication US9557341B2, “Risk assessment for cutaneous adverse drug reactions from antiretroviral agent” (priority 2008, dated 2017).
Read-outs that look alike come from different tables or passages of the source.

Details: cited from earlier work; for hypersensitivity reaction incidence: mix French population

O=C1Nc2ccc(Cl)cc2[C@@](C#CC2CC2)(C(F)(F)F)O1 [EFV, efavirenz]
rate of drug rash (human, in vivo): 11% | rate of hepatitis (human, in vivo): 9%

Nc1nc(NC2CC2)c2ncn([C@H]3C=C[C@@H](CO)C3)c2n1 [abacavir]
odds ratios, hypersensitivity and HLA-B*5701 (Caucasians): 117 | rate of unwarranted interruptions of therapy (after HLA-B*5701 screening): 0.73% | rate of unwarranted interruptions of therapy (before HLA-B*5701 screening): 10.2% | negative predictive value of HLA-B*5701 for hypersensitivity (every ethnic studies): more than 90% | hypersensitivity syndrome, cases (human, in vivo): about 5% | hypersensitivity reaction incidence (after HLA-B*5701 screening): 0% | hypersensitivity reaction incidence (before HLA-B*5701 screening): 12%
